Measured values: patent publication US20250197387A1, “BCL-XL DEGRADERS AND USES THEREOF” (Kymera Therapeutics, Inc., priority 2021, published 2025)

How the values were obtained:
Format in all cases: cell-based
BCL-XL [1] = molecular target: T1, BCL-XL (Homo sapiens, UniProt Q07817); assay: BCL-XL degradation assay, western blot in MOLT-4 cells, 16 h; conditions: western blot, MOLT-4 cells, 16 h; for Dmax: read-out: Bcl-xL WB in MOLT-4 degradation 16 h: Average Dmax %; for DC50: read-out: Bcl-xL WB in MOLT-4 degradation 16 h: Mean external-Abs DC50
T1 construct: endogenous in cells; host or cells: MOLT-4
T1 sequence (Q07817 whole entry): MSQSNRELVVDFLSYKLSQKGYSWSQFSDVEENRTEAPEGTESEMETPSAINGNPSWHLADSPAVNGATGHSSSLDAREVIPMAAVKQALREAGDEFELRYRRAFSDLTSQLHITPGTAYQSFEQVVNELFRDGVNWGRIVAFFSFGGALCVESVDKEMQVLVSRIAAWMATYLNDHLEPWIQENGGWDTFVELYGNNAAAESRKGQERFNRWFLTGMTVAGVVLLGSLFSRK
Procedure, shortened: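 MOLT-4 cells treated with compounds at 0.02-10 μM final for 16 hr at 37° C; lysates analysed by western blot with anti-BCL-xL, beta-actin and GAPDH loading controls, infrared imaging and densitometry; DC50 and Dmax % reported as letter codes.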

BCL-XL [2] = molecular target: T1, BCL-XL; assay: Bcl-xL ELISA degradation in MOLT-4 cells, 6 h; conditions: for DC50: read-out: Bcl-xL ELISA in MOLT-4 degradation 6 h: Mean external-Abs DC50
Procedure: The letter codes for BCL-XL DC50 include: A (<0.01 μM); B (0.01-0.1 μM); C (>[…]); D (>0.5-1.0 μM); and E (>1.0 μM). The letter codes for Dmax % include A (>75%); B (50 to 75%); C (<50%).

MOLT-4 cells = assay: CTG (CellTiter-Glo) cell viability assay, MOLT-4; conditions: Homo sapiens, MOLT-4, 72 h, 3 day incubation, read-out: CTG Cell Viability Assay - MOLT-4 3 day: Average external-IC50
Procedure, shortened: (§1)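 Luminescence from CellTiter-Glo, read after 3 days of compound exposure at 37 °C, gave viability; IC50 values came from three-parameter logistic curves. Cells were plated at 10,000 per well and dosed over nine 1:3 steps topping at 10 μM.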

Caki-2 cells = assay: CTG (CellTiter-Glo) cell viability assay, Caki-2; conditions: Homo sapiens, 72 h, 3 day incubation, read-out: CTG Chempartner - Caki-2 3 day: Average external-IC50
Procedure, shortened: as §1

Row | Dmax (BCL-XL [1]) | DC50 (BCL-XL [1]) | Dmax (BCL-XL [2]) | DC50 (BCL-XL [2]) | IC50 (MOLT-4 cells) | SMILES | IC50 (Caki-2 cells)
1 | > 75% | 100 to 500 nM | 50 to 75% | 10 to 100 nM | 100 to 1000 nM | C#Cc1ccc(CNC(=O)[C@@H]2C[C@@H](O)CN2C(=O)[C@@H](NC(=O)CCCS(=O)(=O)NC(=O)c2nc(N(C)c3cc(C)c(Nc4nc5ccccc5s4)nn3)ccc2-c2cnn(CC3CCCCC3)c2C)C(C)(C)C)cc1 [I-340] | > 10000 nM
2 | > 75% | 10 to 100 nM | 50 to 75% | 10 to 100 nM | 100 to 1000 nM | Cc1ncsc1-c1ccc([C@H](C)NC(=O)[C@@H]2C[C@@H](O)CN2C(=O)[C@@H](NC(=O)CCCCCCNC(=O)c2nc(N3CCc4cccc(C(=O)Nc5nc6ccccc6s5)c4C3)ccc2-c2cnn(CC3CCCCC3)c2C)C(C)(C)C)cc1 [I-96] | > 10000 nM
3 | > 75% | 10 to 100 nM | 50 to 75% | 100 to 500 nM | < 100 nM | C#Cc1ccc([C@H](C)NC(=O)[C@@H]2C[C@@H](O)CN2C(=O)[C@@H](NC(=O)CCCCCC(=O)N2CCN(CC[C@H](CSc3ccccc3)Nc3ccc(S(=O)(=O)NC(=O)c4ccc(N5CCN(CC6=C(c7ccc(Cl)cc7)CCC(C)(C)C6)CC5)cc4)cc3S(=O)(=O)C(F)(F)F)CC2)C(C)(C)C)cc1 [I-388] | > 10000 nM
4 | 50 to 75% | 100 to 500 nM | < 50% | > 1000 nM | 1000 to 3000 nM | Cc1ncsc1-c1ccc(CNC(=O)[C@@H]2C[C@@H](O)CC2C(=O)[C@@H](NC(=O)C2(F)CC2)C(C)(C)C)c(OCCCCCCNC(=O)c2nc(N3CCc4cccc(C(=O)Nc5nc6ccccc6s5)c4C3)ccc2-c2cnn(CC3CCCCC3)c2C)c1 (stereo partly drawn) [I-158] | > 10000 nM
5 | > 75% | < 10 nM | > 75% | 10 to 100 nM | < 100 nM | Cc1ncsc1-c1ccc([C@H](C)NC(=O)[C@@H]2C[C@@H](O)CN2C(=O)[C@@H](NC(=O)CCc2ccc(S(=O)(=O)NC(=O)c3nc(N4CCc5cccc(C(=O)Nc6nc7ccccc7s6)c5C4)ccc3-c3cnn(CC4CCCCC4)c3C)cc2)C(C)(C)C)cc1 [I-123] | 1000 to 10000 nM
6 | > 75% | < 10 nM | > 75% | 10 to 100 nM | < 100 nM | Cc1ncsc1-c1ccc(CNC(=O)[C@@H]2C[C@@H](O)CN2C(=O)[C@@H](NC(=O)C2(F)CC2)C(C)(C)C)c(OCCCCCS(=O)(=O)NC(=O)c2nc(N3CCc4cccc(C(=O)Nc5nc6ccccc6s5)c4C3)ccc2-c2cnn(CC34CC5CC(CC(C5)C3)C4)c2C)c1 [I-121] | 100 to 1000 nM
7 | > 75% | 10 to 100 nM | < 50% | > 1000 nM | < 100 nM | Cc1ncsc1-c1ccc(CNC(=O)[C@@H]2C[C@@H](O)CN2C(=O)[C@@H](NC(=O)CCCCCC(=O)N2CCN(CC[C@H](CSc3ccccc3)Nc3ccc(S(=O)(=O)NC(=O)c4ccc(N5CCN(CC6=C(c7ccc(Cl)cc7)CCC(C)(C)C6)CC5)cc4)cc3S(=O)(=O)C(F)(F)F)CC2)C(C)(C)C)cc1 [I-389] | 1000 to 10000 nM
8 | > 75% | 10 to 100 nM | > 75% | 10 to 100 nM | 100 to 1000 nM | Cc1ncsc1-c1ccc(CNC(=O)[C@@H]2C[C@@H](O)CN2C(=O)[C@@H](NC(=O)CCOCCOCCOCCOCCOCCOCC#Cc2ccc(OCCCc3sc(N4CCc5cccc(C(=O)Nc6nc7ccccc7s6)c5C4)nc3C(=O)O)cc2)C(C)(C)C)cc1 [I-383] | 1000 to 10000 nM
9 | > 75% | < 10 nM | > 75% | 10 to 100 nM | < 100 nM | Cc1ncsc1-c1ccc(CNC(=O)[C@@H]2C[C@@H](O)CN2C(=O)[C@@H](NC(=O)C2(F)CC2)C(C)(C)C)c(OCCCCCS(=O)(=O)NC(=O)c2nc(N3CCc4cccc(C(=O)Nc5nc6ccccc6s5)c4C3)ccc2-c2cnn(CC3CCCCC3)c2C)c1 [I-177] | 1000 to 10000 nM
10 | > 75% | < 10 nM | > 75% | 10 to 100 nM | < 100 nM | Cc1ncsc1-c1ccc([C@H](C)NC(=O)[C@@H]2C[C@@H](O)CN2C(=O)[C@@H](NC(=O)C2CCN(c3ccc(S(=O)(=O)NC(=O)c4nc(N5CCc6cccc(C(=O)Nc7nc8ccccc8s7)c6C5)ccc4-c4cnn(CC5CCCCC5)c4C)cc3)CC2)C(C)(C)C)cc1 [I-195] | 1000 to 10000 nM
11 | > 75% | < 10 nM | 50 to 75% | 100 to 500 nM | < 100 nM | Cc1ncsc1-c1ccc(CNC(=O)[C@@H]2C[C@@H](O)CN2C(=O)[C@@H](NC(=O)C2(F)CC2)C(C)(C)C)c(OCCC2CCN(CC[C@H](CSc3ccccc3)Nc3ccc(S(=O)(=O)NC(=O)c4ccc(N5CCN(CC6=C(c7ccc(Cl)cc7)CCC(C)(C)C6)CC5)cc4)cc3S(=O)(=O)C(F)(F)F)CC2)c1 [I-183] | > 10000 nM
12 | > 75% | 100 to 500 nM | 50 to 75% | 100 to 500 nM | 1000 to 3000 nM | C#Cc1ccc(CNC(=O)[C@@H]2C[C@@H](O)CN2C(=O)[C@@H](NC(=O)CCCCS(=O)(=O)NC(=O)c2nc(N(C)c3cc(C)c(Nc4nc5ccccc5s4)nn3)ccc2-c2cnn(CC3CCCCC3)c2C)C(C)(C)C)cc1 [I-345] | > 10000 nM
13 | > 75% | 10 to 100 nM | > 75% | 10 to 100 nM | 100 to 1000 nM | Cc1ncsc1-c1ccc([C@H](C)NC(=O)[C@@H]2C[C@@H](O)CN2C(=O)[C@H](NC(=O)CCCCCCCS(=O)(=O)NC(=O)c2nc(N3CCc4cccc(C(=O)Nc5nc6ccccc6s5)c4C3)ccc2-c2cnn(CC(C)C)c2C)C(C)(C)C)cc1 [I-179] | > 10000 nM
14 | > 75% | < 10 nM | > 75% | 10 to 100 nM | 100 to 1000 nM | C#Cc1ccc([C@H](CO)NC(=O)[C@@H]2C[C@@H](O)CN2C(=O)[C@@H](NC(=O)CCc2ccc(S(=O)(=O)NC(=O)c3nc(N4CCc5cccc(C(=O)Nc6nc7cccnc7s6)c5C4)ccc3-c3cnn(CC4CCCCC4)c3C)cc2)C(C)(C)C)cc1 [I-205] | > 10000 nM
15 | > 75% | < 10 nM | 50 to 75% | 10 to 100 nM | < 100 nM | Cc1ncsc1-c1ccc([C@H](C)NC(=O)[C@@H]2C[C@@H](O)CN2C(=O)[C@@H](NC(=O)CCCCCCC(=O)N2CCN(C[C@]3(C)CCC(c4ccc(Cl)cc4)=C(CN4CCN(c5ccc(C(=O)NS(=O)(=O)c6ccc(N[C@H](CCN7CCOCC7)CSc7ccccc7)c(S(=O)(=O)C(F)(F)F)c6)cc5)CC4)C3)CC2)C(C)(C)C)cc1 [I-397] | 100 to 1000 nM
16 | 50 to 75% | 100 to 500 nM | > 75% | 100 to 500 nM | > 3000 nM | Cc1ncsc1-c1ccc(CNC(=O)[C@@H]2C[C@@H](O)CN2C(=O)[C@@H](NC(=O)CCCS(=O)(=O)NC(=O)c2nc(N3CCc4cccc(C(=O)Nc5nc6cccnc6s5)c4C3)ccc2-c2cnn(CC3CCCCC3)c2C)C(C)(C)C)cc1 [I-351] | > 10000 nM
17 | > 75% | 10 to 100 nM | 50 to 75% | 10 to 100 nM | 100 to 1000 nM | Cc1ncsc1-c1ccc([C@H](C)NC(=O)[C@@H]2C[C@@H](O)CN2C(=O)[C@@H](c2cc(OC3CCN(CCCS(=O)(=O)NC(=O)c4nc(N5CCc6cccc(C(=O)Nc7nc8ccccc8s7)c6C5)ccc4-c4cnn(CC5CCCCC5)c4C)CC3)no2)C(C)C)cc1 [I-178] | > 10000 nM
18 | 50 to 75% | < 10 nM |  |  | 100 to 1000 nM | Cc1ncsc1-c1ccc([C@H](C)NC(=O)[C@@H]2C[C@@H](O)CN2C(=O)[C@@H](NC(=O)N2CC3(C2)CN(c2ccc(S(=O)(=O)NC(=O)c4nc(N5CCc6cccc(C(=O)Nc7nc8ccccc8s7)c6C5)ccc4-c4cnn(CC5CCCCC5)c4C)cc2)C3)C(C)(C)C)cc1 [I-196] | 1000 to 10000 nM
19 | > 75% | 10 to 100 nM | > 75% | 100 to 500 nM | 1000 to 3000 nM | Cc1cc(N(C)c2ccc(-c3cnn(CC4CCCCC4)c3C)c(C(=O)NS(=O)(=O)CCCCC(=O)N[C@H](C(=O)N3C[C@H](O)C[C@H]3C(=O)N[C@@H](C)c3ccc(-c4scnc4C)cc3)C(C)(C)C)n2)nnc1Nc1nc2ccccc2s1 [I-353] | > 10000 nM
20 | > 75% | < 10 nM |  |  | 100 to 1000 nM | Cc1ncsc1-c1ccc([C@H](C)NC(=O)[C@@H]2C[C@@H](O)CN2C(=O)[C@@H](NC(=O)CCCCCCCCC(=O)N(C)CC#Cc2ccc(OCCCc3sc(N4CCc5cccc(C(=O)Nc6nc7ccccc7s6)c5C4)nc3C(=O)O)c(F)c2)C(C)(C)C)cc1 [I-384] | 1000 to 10000 nM
21 | > 75% | < 10 nM |  |  | < 100 nM | Cc1ncsc1-c1ccc([C@H](C)NC(=O)[C@@H]2C[C@@H](O)CN2C(=O)[C@@H](NC(=O)CCCCCCCS(=O)(=O)NC(=O)c2nc(N3CCc4cccc(C(=O)Nc5nc6cccnc6s5)c4C3)ccc2-c2cnn(CC34CC5CC(CC(C5)C3)C4)c2C)C(C)(C)C)cc1 [I-141] | 1000 to 10000 nM
